Like-named read-outs stand apart in the source and are kept apart here.
Tests used:
[1] = literature values; cited from earlier work
[2] = Longitudinal relaxation time (T1) measurement, r1 relaxivity in deionized water; format: physicochemical
Protocol: IR spectra were recorded on a […] 550 infrared spectrometer. Elemental analyses for C, H, and N were performed on an EA1110 CHNS elemental analyzer. Thermogravimetric analysis (TGA) was performed on an SDTA851 Thermogravimetric Analyzer at a heating rate of 10° C. min^-1 under a nitrogen gas flow in an Al2O3 pan. Powder X-ray diffraction (PXRD) spectra were recorded with a Rigaku D/max-2200/PC. The X-ray generated from a sealed Cu tube was mono-chromated by a graphite crystal and collimated by a 0.5 mm MONOCAP (λ Cu-Kα=1.54178 Å). The tube voltage and current were 40 kV and 40 mA, respectively. […] The measurement of the longitudinal relaxation time T1 was conducted at 30° C. Five samples of compounds 1 and 2 were prepared with the concentrations of 31.25, 62.5, 125, 250, and 500 μM in deionized water, respectively. Before the T1 test, these samples were ultrasonicated for 2 min to dissolve the compounds homogeneously in deionized water. The T1 of deionized water was tested as background. The T1 of the MOF solution was corrected from the background. The measurement time of each sample was ca. 2 min. […] On each image, signal intensities were measured by drawing ROIs in the center of each vial. The T1 relaxation times were performed by fitting the acquired inversion recovery images to a following equation: […]1)), where M and M0 are measured and initial magnetization, respectively. […]

Row | Structure (SMILES) | r1 relaxivity [1] [mM⁻¹ s⁻¹] | r1 relaxivity ([2]; 0.5 T, 30° C., deionized water, 31.25 to 500 μM) [mM⁻¹ s⁻¹] | relaxivity rates (r1), MRI phantom measurement ([2]; 3T, in water) [mM^−1S^−1]
1 | CNC(=O)CN(CCN(CCN(CC(=O)[O-])CC(=O)NC)CC(=O)[O-])CC(=O)[O-].[Gd+3] [OmniScan] | 4.1 | – | –
2 | O=C([O-])CN(CCN(CC(=O)[O-])CC(=O)O)CCN(CC(=O)[O-])CC(=O)O.[Gd+3] [Gd-DTPA] | – | 4.87 | 4.98

Source: patent publication US10759757B2, “Crystalline contrast agent for magnetic resonance imaging, kit and composition comprising it and their use” (Southern Medical University, priority 2016, dated 2020)
